Test results: US20050119288A1, “Dosing schedule for a novel anticancer agent” (Pfizer Inc, priority 2003, published 2005)

Tests used:
[1] = Pharmacokinetics in MDA-MB-453 tumor-bearing mice; type: in vivo; details: day 29; for Cave0-4 h / AUC(0-t) / Cmax: PO; for AUC(0-t) / Cmax: female, athymic, mouse, blood, po; for AUC(0-t): read-out: AUC0-4 h; for Cmax: read-out: Cmax 0.5 h
Procedure: Study Design: Exponentially growing MDA-MB-453 cells (DMEM/F12 with 10% FBS, and pen/strep [Gibco]) were harvested and inoculated SC (5 million cells/animal) into female athymic mice. MDA-MB-453 tumor bearing mice (˜100 mm^3 in size, N=64) were randomized in 8 groups consisting 8 animals each. Animals were treated with vehicle (PO, QD or BID) or the test compound (PO, QD or BID) as described in Table 6. The tumor measurements and body weight changes were obtained on days 1, 3, 7, 10, 14, 17, 21, 24, and 29. Tumor volume was calculated by the following formula: Tumor volume (mm^3)═(W×W)/2×L (L=length & W=width). Blood samples (˜50 μl) were isolated at 0.5, 1, 2, 4 and 8 hrs after dosing on day 29 for PK-analysis. Tumors were isolated at 0.5 hr post-dosing on day 29 for PD-analysis by ELISA.

[2] = molecular target: T1, erbB2 receptor autophosphorylation (Homo sapiens, UniProt P04626); experiment: p-erbB2 reduction in SK-OV-3 tumors by ELISA; type: in vivo; details: 0.5 hr post-dosing on day 18
T1 sequence (P04626 23-1255): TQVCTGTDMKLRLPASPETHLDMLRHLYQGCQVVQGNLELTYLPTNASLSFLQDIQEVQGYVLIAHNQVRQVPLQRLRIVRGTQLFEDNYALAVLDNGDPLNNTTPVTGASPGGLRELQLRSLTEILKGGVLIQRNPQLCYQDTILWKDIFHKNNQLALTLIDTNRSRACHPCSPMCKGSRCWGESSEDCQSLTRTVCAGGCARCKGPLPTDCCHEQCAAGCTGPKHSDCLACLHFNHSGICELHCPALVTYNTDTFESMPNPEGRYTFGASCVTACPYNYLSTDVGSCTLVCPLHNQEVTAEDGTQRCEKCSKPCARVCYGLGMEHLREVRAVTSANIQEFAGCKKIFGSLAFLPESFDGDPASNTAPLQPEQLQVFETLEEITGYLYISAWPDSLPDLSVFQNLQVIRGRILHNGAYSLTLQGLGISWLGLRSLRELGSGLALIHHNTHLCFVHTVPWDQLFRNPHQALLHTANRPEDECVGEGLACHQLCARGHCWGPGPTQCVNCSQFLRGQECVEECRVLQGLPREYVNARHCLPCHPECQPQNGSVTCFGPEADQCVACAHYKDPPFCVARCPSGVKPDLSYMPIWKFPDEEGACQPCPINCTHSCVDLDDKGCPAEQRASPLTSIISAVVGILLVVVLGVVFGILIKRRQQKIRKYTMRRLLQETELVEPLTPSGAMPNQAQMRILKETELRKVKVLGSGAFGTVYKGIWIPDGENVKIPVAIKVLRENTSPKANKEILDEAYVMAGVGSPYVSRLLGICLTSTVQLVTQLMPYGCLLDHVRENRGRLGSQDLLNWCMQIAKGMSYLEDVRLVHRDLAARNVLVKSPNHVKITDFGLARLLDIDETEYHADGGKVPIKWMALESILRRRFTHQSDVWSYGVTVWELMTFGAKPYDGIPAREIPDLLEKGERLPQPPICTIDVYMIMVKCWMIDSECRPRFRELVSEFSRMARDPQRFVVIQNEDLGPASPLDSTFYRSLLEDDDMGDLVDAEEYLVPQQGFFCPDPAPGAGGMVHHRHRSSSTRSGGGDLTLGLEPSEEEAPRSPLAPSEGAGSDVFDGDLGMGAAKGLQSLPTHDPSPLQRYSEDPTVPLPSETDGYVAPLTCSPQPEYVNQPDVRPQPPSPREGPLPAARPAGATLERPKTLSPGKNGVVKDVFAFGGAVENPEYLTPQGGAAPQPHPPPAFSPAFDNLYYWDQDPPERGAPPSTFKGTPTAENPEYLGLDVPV
Procedure: SK-OV-3 cells obtained from ATCC (Rockville, Md.) were grown in McCoy's medium containing 10% fetal bovine serum and pen/strep. Exponentially growing cells were harvested and inoculated SC (5 million cells/animal) into female athymic mice. The tumor measurements and body weight changes were obtained on days 1, 3, 6, 10, 13 and 18. Tumor volume was calculated by the following formula: Tumor volume (mm^3)═(W×W)/2×L (L=length & W=width). Blood samples (˜50 μl) were isolated at 0.5, 1, 2, 4 and 8 hrs after dosing on day 18 for PK-analysis. Tumors were isolated at 0.5 hr post-dosing on day 18 for PD-analysis by ELISA.

[3] = molecular target: T1, erbB2 receptor autophosphorylation; experiment: p-erbB2 reduction in BT-474 tumors by ELISA; type: in vivo; details: 0.5 hr post-dosing on day 22; for inhibition in vivo at 30 mg/kg / inhibition in vivo at 50 mg/kg: BT-474, po, 0.5 h; for % p-erbB2 reduction: PO
Procedure: (§1) Exponentially growing BT-474 cells (RPMI 1640 with 10 mM HEPES, 10% FBS, and pen/strep [Gibco]) were harvested and inoculated SC (5 million cells/animal) into female athymic mice. Trochar pieces of BT-474 tumors were then implanted into the right flank of animals. BT-474 tumor bearing mice (50-320 mm^3 in size, N=40) were randomized in 7 groups consisting 5-6 animals each. Animals were treated with vehicle (PO, BID) or the test compound (PO, QD or BID) as described in Table 4. The tumor measurements and body weight changes were obtained on days 1, 6, 11, 15 and 22. Tumor volume was calculated by the following formula: Tumor volume (mm^3)═(W×W)/2×L (L=length & W=width). Blood samples (˜50 μl) were isolated at 0.5, 1, 2, 4 and 8 hrs after dosing on day 22 for PK-analysis. Tumors were isolated at 0.5 hr post-dosing on day 22 for PD-analysis by ELISA.

in vivo = details: athymic, mouse, plasma
Procedure: The test compound was either administered using tail vein infusion or orally.
A 1.15 mg/ml solution of the test compound was infused IV at 550 μl/hr for 2 minute ramped infusions followed by 50 μl/hr for 15 min or 4 hour daily infusions. (Projection was based on Cl of the test compound). Athymic female mice bearing FRE/erbB2 tumors (˜100 mm^3 in size) were treated with vehicle, the test compound orally or the test compound intravenously. […] The study was carried out for 7 days. Plasma and tumor samples were isolated for PK and PD analysis at the termination of study.

[4] = Body weight and tolerability, BT-474 study; type: in vivo, mice; details: PO
Procedure: as §1

[5] = BID, 30 mg/kg (Total Daily Dose = 60 mg/kg)

COCC(=O)NC/C=C/c1ccc2ncnc(Nc3ccc(Oc4ccc(C)nc4)c(C)c3)c2c1 [Test Compound, E-2-Methoxy-N-(3-{4-(3-methyl-4-(6-methyl-pyridin-3-yloxy)-phenylamino)-quinazolin-6-yl}-allyl)-acetamide]
Cave0-4 h ([1]; 25 mg/kg, BID): 215 ng/mL | Cave0-4 h ([1]; 50 mg/kg, BID): 509 ng/mL | Cave0-4 h ([1]; 50 mg/kg, QD): 591 ng/mL | Cave0-4 h ([1]; 100 mg/kg, BID): 1710 ng/mL | Cave0-4 h ([1]; 100 mg/kg, QD): 3120 ng/mL | Cave0-4 h ([1]; 200 mg/kg, QD): 6510 ng/mL | Cave0-4 h, 200 mg/kg QD group relative to 100 mg/kg BID group [1]: 3.8 fold | Cmax, 100 mg/kg QD group relative to 50 mg/kg QD and 50 mg/kg BID groups [1]: approximately 4 fold | Cmax, 200 mg/kg QD group relative to 100 mg/kg BID group [1]: 2.4 fold | AUC(0-t) ([1]; 25 mg/kg, BID): 857 ng·h/mL | Cmax ([1]; 25 mg/kg, BID): 952 ng/mL | AUC(0-t) ([1]; 50 mg/kg, BID): 2040 ng·h/mL | Cmax ([1]; 50 mg/kg, BID): 2390 ng/mL | AUC(0-t) ([1]; 50 mg/kg, QD): 2360 ng·h/mL | Cmax ([1]; 50 mg/kg, QD): 2760 ng/mL | AUC(0-t) ([1]; 100 mg/kg, BID): 6840 ng·h/mL | Cmax ([1]; 100 mg/kg, BID): 6870 ng/mL | AUC(0-t) ([1]; 100 mg/kg, QD): 12500 ng·h/mL | Cmax ([1]; 100 mg/kg, QD): 9770 ng/mL | AUC(0-t) ([1]; 200 mg/kg, QD): 26100 ng·h/mL | Cmax ([1]; 200 mg/kg, QD): 16700 ng/mL | inhibition in vivo at 25 mg/kg ([2]; SK-OV-3, po, 0.5 h, PO, BID 25 mg/kg (Total Daily Dose = 50 mg/kg)): 20% | inhibition in vivo at 50 mg/kg ([2]; SK-OV-3, po, 0.5 h, PO, BID 50 mg/kg (Total Daily Dose = 100 mg/kg)): 24% | inhibition in vivo at 100 mg/kg ([2]; SK-OV-3, po, 0.5 h, PO, BID 100 mg/kg (Total Daily Dose = 200 mg/kg)): 62% | inhibition in vivo at 50 mg/kg ([2]; SK-OV-3, po, 0.5 h, PO, QD 50 mg/kg): 14% | inhibition in vivo at 100 mg/kg ([2]; SK-OV-3, po, 0.5 h, PO, QD 100 mg/kg): 75% | inhibition in vivo at 200 mg/kg ([2]; SK-OV-3, po, 0.5 h, PO, QD 200 mg/kg): 90% | reduction of erbB2 receptor autophosphorylation ([2]; span over 50 mg/kg QD and 25 mg/kg BID): 14-20% | inhibition in vivo at 30 mg/kg [3, 5]: 26% | inhibition in vivo at 50 mg/kg ([3]; BID, 50 mg/kg (Total Daily Dose = 100 mg/kg)): ~75% | inhibition in vivo at 30 mg/kg ([3]; QD, 30 mg/kg): 57% | inhibition in vivo at 50 mg/kg ([3]; QD, 50 mg/kg): ~75% | % p-erbB2 reduction ([3]; BID, 15 mg/kg (Total Daily Dose = 30 mg/kg)): below the limit of detection | % p-erbB2 reduction [3, 5]: 26% | % p-erbB2 reduction ([3]; QD, 15 mg/kg, 15 mg/kg): below the limit of detection | AUC(0-t) (in vivo): ~985 ng·h/mL | Cmax (in vivo): ~1200 ng/mL | concentration at 7 days (in vivo; female, intravenous, 1.4 mg/kg): 448 ± 141 ng/mL | concentration at 0.5 h (in vivo; female, oral, 25 mg/kg): 1460 ng/mL | average body weight Day 1 ([4]; BID 50 mg/kg): 24 g | average body weight Day 1 ([4]; BID, 15 mg/kg): 24 g | average body weight Day 22 ([4]; BID, 15 mg/kg): 29 g | average body weight Day 1 ([4]; BID, 30 mg/kg): 26 g | average body weight Day 22 ([4]; BID, 30 mg/kg): 30 g | average body weight Day 22 ([4]; BID, 50 mg/kg): 28 g | average body weight Day 1 ([4]; QD 50 mg/kg): 25 g | average body weight Day 1 ([4]; QD, 15 mg/kg): 25 g | average body weight Day 22 ([4]; QD, 15 mg/kg): 29 g | average body weight Day 1 ([4]; QD, 30 mg/kg): 23 g | average body weight Day 22 ([4]; QD, 30 mg/kg): 27 g | average body weight Day 22 ([4]; QD, 50 mg/kg): 29 g | tolerability, body weight loss or animal mortality ([4]; QD or BID, 22 days): well tolerated and there was no body weight loss or animal mortality
